Assay results: patent US20230265151A1, “GIP/GLP1 CO-AGONIST COMPOUNDS” (priority 2020, published 2023)
Like-named read-outs stand apart in the source and are kept apart here. *1 amine or outer side, *2 acyl side, *3 side chain or, on linkers, in order; H or OH if unused. Where a SMILES comes first, the peptide text is derived from it. Side-chain parts run from the residue outwards. [ ]: non-standard residue; d: D form. The star is where a group is joined. Decanoyl(10-(4-HOOC-PhO)) = O=C(O)c1ccc(OCCCCCCCCCC(=O)*)cc1; αMePhe(2-F) = C[C@](N)(Cc1ccccc1F)C(=O)O; γGlu = O=C(O)[C@H](CCC(=O)[*:2])N[*:1]; αMeY = C[C@](N)(Cc1ccc(O)cc1)C(=O)O; αMeL = CC(C)C[C@](C)(N)C(=O)O; Orn = NCCC[C@H](N)C(=O)O; AEEA = NCCOCCOCC(=O)O; Aib = CC(C)(N)C(=O)O

Experiments:
Assay type in all cases: cell-based
[1] = biological target: T1, hGCGR (Homo sapiens, UniProt P47871); assay: Functional cAMP formation (HTRF) in HEK-293 clonal cells expressing hGCGR, 0.1% bovine casein, without or with 1.0% human serum albumin; details: hGCGR EC50, nM (SEM, n), 37° C., geometric mean
T1 construct: expressed in transfected cells
T1 sequence (P47871 26-477): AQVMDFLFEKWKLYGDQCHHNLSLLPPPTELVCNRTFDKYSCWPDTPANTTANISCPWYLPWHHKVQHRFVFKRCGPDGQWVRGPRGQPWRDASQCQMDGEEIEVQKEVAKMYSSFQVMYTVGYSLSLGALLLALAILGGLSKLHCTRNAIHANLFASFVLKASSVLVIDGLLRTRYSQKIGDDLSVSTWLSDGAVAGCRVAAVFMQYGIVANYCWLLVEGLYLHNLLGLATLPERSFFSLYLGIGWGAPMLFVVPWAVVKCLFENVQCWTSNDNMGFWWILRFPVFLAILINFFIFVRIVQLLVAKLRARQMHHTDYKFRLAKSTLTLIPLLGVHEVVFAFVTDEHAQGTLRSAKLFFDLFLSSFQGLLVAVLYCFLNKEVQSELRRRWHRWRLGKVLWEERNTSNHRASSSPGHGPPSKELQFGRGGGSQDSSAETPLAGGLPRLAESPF
How it was run: (§1)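 Readings of the HTRF 665/620 nm ratio, which falls as cAMP rises, were converted to nM cAMP using a standard curve after 30 min peptide exposure at 37° C.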

[2] = biological target: T2, hGIPR (Homo sapiens, UniProt P48546); assay: Functional cAMP formation (HTRF) in HEK-293 clonal cells expressing hGIPR, 0.1% bovine casein, without or with 1.0% human serum albumin; details: for Emax: percent of maximal response to GIP(1-42)NH2; for EC50: hGIPR EC50, nM (SEM, n), 37° C., geometric mean
T2 construct: expressed in transfected cells
T2 sequence (P48546 22-466): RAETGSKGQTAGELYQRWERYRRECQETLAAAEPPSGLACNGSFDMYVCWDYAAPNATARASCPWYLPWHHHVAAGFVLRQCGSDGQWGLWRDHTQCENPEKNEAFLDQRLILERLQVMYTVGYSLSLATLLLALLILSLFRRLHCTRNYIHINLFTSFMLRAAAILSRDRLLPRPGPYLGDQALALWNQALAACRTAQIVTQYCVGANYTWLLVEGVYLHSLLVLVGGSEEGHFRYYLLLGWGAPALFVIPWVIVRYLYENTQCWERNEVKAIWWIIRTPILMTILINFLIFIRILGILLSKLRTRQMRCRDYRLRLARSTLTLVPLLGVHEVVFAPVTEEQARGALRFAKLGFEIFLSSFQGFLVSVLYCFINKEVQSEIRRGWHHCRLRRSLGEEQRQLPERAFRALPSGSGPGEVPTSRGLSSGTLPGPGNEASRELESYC
How it was run: as §1

[3] = biological target: hGLP-1R (Homo sapiens, UniProt P43220); assay: Functional cAMP formation (HTRF) in HEK-293 clonal cells expressing hGLP-1R, 0.1% bovine casein, without or with 1.0% human serum albumin; set-up: expressed in transfected cells; details: for Emax: percent of maximal response to GLP-1(7-36)NH2; for EC50: hGLP-1R EC50, nM (SEM, n), 37° C., geometric mean
hGLP-1R, sequence (P43220 24-463): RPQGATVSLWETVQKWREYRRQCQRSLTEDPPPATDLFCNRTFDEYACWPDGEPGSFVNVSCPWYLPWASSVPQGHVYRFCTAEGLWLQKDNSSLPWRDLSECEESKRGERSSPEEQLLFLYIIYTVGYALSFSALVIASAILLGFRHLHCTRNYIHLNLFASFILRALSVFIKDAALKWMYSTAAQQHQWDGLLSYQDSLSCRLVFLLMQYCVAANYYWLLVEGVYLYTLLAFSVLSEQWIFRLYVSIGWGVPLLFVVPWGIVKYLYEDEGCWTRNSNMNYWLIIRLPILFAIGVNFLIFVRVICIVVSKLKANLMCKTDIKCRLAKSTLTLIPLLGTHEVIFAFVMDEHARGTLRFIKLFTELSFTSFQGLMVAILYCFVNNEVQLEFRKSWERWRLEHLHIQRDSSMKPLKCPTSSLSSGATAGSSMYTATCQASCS
How it was run: as §1

[4] = 0.1% bovine casein and 1.0% human serum albumin
[5] = cAMP, 0.1% bovine casein (no human serum albumin)
[6] = HEK293, read-out: hGIPR Emax, % ± SEM, 0.1% bovine casein and 1.0% human serum albumin, 37° C.
[7] = HEK293, read-out: hGLP-1R Emax, % ± SEM, 0.1% bovine casein and 1.0% human serum albumin, 37° C.
[8] = HEK293, read-out: hGLP-1R Emax, % ± SEM, cAMP, 37° C., 0.1% bovine casein, arithmetic mean

SMILES | EC50 [1, 4] [nM] | EC50 [1, 5] [nM] | Emax [2, 6] [%] | EC50 [2, 5] [nM] | Emax [3, 7] [%] | Emax [3, 8] [%] | EC50 [3, 5] [nM] | EC50 [3, 4] [nM] | Emax ([2]; HEK293, read-out: hGIPR Emax, % ± SEM, cAMP, 37° C., 0.1% bovine casein, arithmetic mean) [%] | EC50 [2, 4] [nM]
CC[C@H](C)[C@H](NC(=O)[C@H](CC(C)C)NC(=O)[C@](C)(Cc1ccc(O)cc1)NC(=O)[C@@H](CCC(=O)O)NC(=O)[C@@H](NC(=O)[C@H](Cc1ccccc1)NC(=O)[C@H](CCC(=O)O)NC(=O)C(C)(C)NC(=O)[C@H](CCC(N)=O)NC(=O)[C@H](C)NC(=O)[C@H](CCCCNC(=O)COCCOCCNC(=O)COCCOCCNC(=O)CC[C@H](NC(=O)CCCCCCCCCOc1ccc(C(=O)O)cc1)C(=O)O)NC(=O)[C@H](CCCN)NC(=O)[C@H](CC(=O)O)NC(=O)[C@H](CC(C)C)NC(=O)[C@](C)(CC(C)C)NC(=O)[C@@H](NC(=O)[C@H](CO)NC(=O)[C@H](Cc1ccncc1)NC(=O)[C@H](CC(=O)O)NC(=O)[C@H](CO)NC(=O)[C@@H](NC(=O)[C@](C)(Cc1ccccc1F)NC(=O)[C@@H](NC(=O)CNC(=O)[C@H](CCC(=O)O)NC(=O)C(C)(C)NC(=O)[C@@H](N)Cc1ccc(O)cc1)[C@@H](C)O)[C@@H](C)O)[C@@H](C)CC)[C@@H](C)CC)C(=O)N[C@@H](CCC(=O)O)C(=O)NCC(=O)NCC(=O)N1CCC[C@H]1C(=O)N[C@@H](CO)C(=O)N[C@@H](CO)C(=O)NCC(=O)N[C@@H](C)C(=O)N1CCC[C@H]1C(=O)N1CCC[C@H]1C(=O)N1CCC[C@H]1C(=O)N[C@@H](CO)C(=O)N[C@@H](CCCCNC(=O)COCCOCCNC(=O)COCCOCCNC(=O)CC[C@H](NC(=O)CCCCCCCCCOc1ccc(C(=O)O)cc1)C(=O)O)C(N)=O [Example 273] | > 9950 | > 9950 | 88.4 | 0.0166 | 90.5 | – | – | – | – | –
CC[C@H](C)[C@H](NC(=O)[C@H](CCCN)NC(=O)[C@H](CC(=O)O)NC(=O)[C@H](CC(C)C)NC(=O)[C@](C)(CC(C)C)NC(=O)[C@@H](NC(=O)[C@H](CO)NC(=O)[C@H](Cc1ccncc1)NC(=O)[C@H](CC(=O)O)NC(=O)[C@H](CO)NC(=O)[C@@H](NC(=O)[C@](C)(Cc1ccccc1F)NC(=O)[C@@H](NC(=O)CNC(=O)[C@H](CCC(=O)O)NC(=O)C(C)(C)NC(=O)[C@@H](N)Cc1ccc(O)cc1)[C@@H](C)O)[C@@H](C)O)[C@@H](C)CC)C(=O)N[C@@H](C)C(=O)N[C@@H](CCC(N)=O)C(=O)NC(C)(C)C(=O)N[C@@H](CCC(=O)O)C(=O)N[C@@H](Cc1ccccc1)C(=O)N[C@H](C(=O)N[C@@H](CCCCNC(=O)COCCOCCNC(=O)COCCOCCNC(=O)CC[C@H](NC(=O)CCCCCCCCCOc1ccc(C(=O)O)cc1)C(=O)O)C(=O)N[C@@](C)(Cc1ccc(O)cc1)C(=O)N[C@@H](CC(C)C)C(=O)N[C@H](C(=O)N[C@@H](CCCCNC(=O)COCCOCCNC(=O)COCCOCCNC(=O)CC[C@H](NC(=O)CCCCCCCCCOc1ccc(C(=O)O)cc1)C(=O)O)C(=O)NCC(=O)NCC(=O)N1CCC[C@H]1C(=O)N[C@@H](CO)C(=O)N[C@@H](CO)C(=O)NCC(=O)N[C@@H](C)C(=O)N1CCC[C@H]1C(=O)N1CCC[C@H]1C(=O)N1CCC[C@H]1C(=O)N[C@@H](CO)C(N)=O)[C@@H](C)CC)[C@@H](C)CC [Example 274] | > 9950 | > 9950 | 93.5 | 0.0226 | 121 | 114 | 0.406 | – | – | –
CC[C@H](C)[C@H](NC(=O)[C@H](CCCN)NC(=O)[C@H](CC(=O)O)NC(=O)[C@H](CC(C)C)NC(=O)[C@](C)(CC(C)C)NC(=O)[C@@H](NC(=O)[C@H](CO)NC(=O)[C@H](Cc1ccncc1)NC(=O)[C@H](CC(=O)O)NC(=O)[C@H](CO)NC(=O)[C@@H](NC(=O)[C@](C)(Cc1ccccc1F)NC(=O)[C@@H](NC(=O)CNC(=O)[C@H](CCC(=O)O)NC(=O)C(C)(C)NC(=O)[C@@H](N)Cc1ccc(O)cc1)[C@@H](C)O)[C@@H](C)O)[C@@H](C)CC)C(=O)N[C@@H](C)C(=O)N[C@@H](CCC(N)=O)C(=O)NC(C)(C)C(=O)N[C@@H](CCCCNC(=O)COCCOCCNC(=O)COCCOCCNC(=O)CC[C@H](NC(=O)CCCCCCCCCOc1ccc(C(=O)O)cc1)C(=O)O)C(=O)N[C@@H](Cc1ccccc1)C(=O)N[C@H](C(=O)N[C@H](CCC(=O)O)C(=O)N[C@@](C)(Cc1ccc(O)cc1)C(=O)N[C@@H](CC(C)C)C(=O)N[C@H](C(=O)N[C@@H](CCCCNC(=O)COCCOCCNC(=O)COCCOCCNC(=O)CC[C@H](NC(=O)CCCCCCCCCOc1ccc(C(=O)O)cc1)C(=O)O)C(=O)NCC(=O)NCC(=O)N1CCC[C@H]1C(=O)N[C@@H](CO)C(=O)N[C@@H](CO)C(=O)NCC(=O)N[C@@H](C)C(=O)N1CCC[C@H]1C(=O)N1CCC[C@H]1C(=O)N1CCC[C@H]1C(=O)N[C@@H](CO)C(N)=O)[C@@H](C)CC)[C@@H](C)CC [Example 275] | > 9950 | > 9950 | – | 0.0152 | – | 110 | – | 33.5 | – | –
CC[C@H](C)[C@H](NC(=O)[C@H](CC(C)C)NC(=O)[C@](C)(Cc1ccc(O)cc1)NC(=O)[C@@H](CCC(=O)O)NC(=O)[C@@H](NC(=O)[C@H](Cc1ccccc1)NC(=O)[C@H](CCCCNC(=O)COCCOCCNC(=O)COCCOCCNC(=O)CC[C@H](NC(=O)CCCCCCCCCOc1ccc(C(=O)O)cc1)C(=O)O)NC(=O)C(C)(C)NC(=O)[C@H](CCC(N)=O)NC(=O)[C@H](C)NC(=O)[C@H](CCCCNC(=O)COCCOCCNC(=O)COCCOCCNC(=O)CC[C@H](NC(=O)CCCCCCCCCOc1ccc(C(=O)O)cc1)C(=O)O)NC(=O)[C@H](CCCN)NC(=O)[C@H](CC(=O)O)NC(=O)[C@H](CC(C)C)NC(=O)[C@](C)(CC(C)C)NC(=O)[C@@H](NC(=O)[C@H](CO)NC(=O)[C@H](Cc1ccc(OC)cc1)NC(=O)[C@H](CC(=O)O)NC(=O)[C@H](CO)NC(=O)[C@@H](NC(=O)[C@](C)(Cc1ccccc1F)NC(=O)[C@@H](NC(=O)CNC(=O)[C@H](CCC(=O)O)NC(=O)C(C)(C)NC(=O)[C@@H](N)Cc1ccc(O)cc1)[C@@H](C)O)[C@@H](C)O)[C@@H](C)CC)[C@@H](C)CC)C(=O)N[C@@H](CCC(=O)O)C(=O)NCC(=O)NCC(=O)N1CCC[C@H]1C(=O)N[C@@H](CO)C(=O)N[C@@H](CO)C(=O)NCC(=O)N[C@@H](C)C(=O)N1CCC[C@H]1C(=O)N1CCC[C@H]1C(=O)N1CCC[C@H]1C(=O)N[C@@H](CO)C(N)=O [Example 277] (H-Y[Aib]EGT[αMePhe(2-F)]TSDY(Me)SI[αMeL]LD[Orn]K([AEEA-AEEA-γGlu-Decanoyl(10-(4-HOOC-PhO))])AQ[Aib]K([AEEA-AEEA-γGlu-Decanoyl(10-(4-HOOC-PhO))])FI[dE][αMeY]LIEGGPSSGAPPPS-NH2) | > 9950 | > 9950 | – | 0.0176 | 93.1 | 97.1 | 0.225 | – | – | –
CC[C@H](C)[C@H](NC(=O)[C@H](CC(C)C)NC(=O)[C@](C)(Cc1ccc(O)cc1)NC(=O)[C@@H](CCC(=O)O)NC(=O)[C@@H](NC(=O)[C@H](Cc1ccccc1)NC(=O)[C@H](CCC(=O)O)NC(=O)C(C)(C)NC(=O)[C@H](CCC(N)=O)NC(=O)[C@H](C)NC(=O)[C@H](CCCCNC(=O)COCCOCCNC(=O)COCCOCCNC(=O)CC[C@H](NC(=O)CCCCCCCCCOc1ccc(C(=O)O)cc1)C(=O)O)NC(=O)[C@H](CCCN)NC(=O)[C@H](CC(=O)O)NC(=O)[C@H](CC(C)C)NC(=O)[C@](C)(CC(C)C)NC(=O)[C@@H](NC(=O)[C@H](CO)NC(=O)[C@H](Cc1ccc(OC)cc1)NC(=O)[C@H](CC(=O)O)NC(=O)[C@H](CO)NC(=O)[C@@H](NC(=O)[C@](C)(Cc1ccccc1F)NC(=O)[C@@H](NC(=O)CNC(=O)[C@H](CCC(=O)O)NC(=O)C(C)(C)NC(=O)[C@@H](N)Cc1ccc(O)cc1)[C@@H](C)O)[C@@H](C)O)[C@@H](C)CC)[C@@H](C)CC)C(=O)N[C@@H](CCCCNC(=O)COCCOCCNC(=O)COCCOCCNC(=O)CC[C@H](NC(=O)CCCCCCCCCOc1ccc(C(=O)O)cc1)C(=O)O)C(=O)NCC(=O)NCC(=O)N1CCC[C@H]1C(=O)N[C@@H](CO)C(=O)N[C@@H](CO)C(=O)NCC(=O)N[C@@H](C)C(=O)N1CCC[C@H]1C(=O)N1CCC[C@H]1C(=O)N1CCC[C@H]1C(=O)N[C@@H](CO)C(N)=O [Example 278] (H-Y[Aib]EGT[αMePhe(2-F)]TSDY(Me)SI[αMeL]LD[Orn]K([AEEA-AEEA-γGlu-Decanoyl(10-(4-HOOC-PhO))])AQ[Aib]EFI[dE][αMeY]LIK([AEEA-AEEA-γGlu-Decanoyl(10-(4-HOOC-PhO))])GGPSSGAPPPS-NH2) | > 9950 | > 9950 | 91.1 | – | 121 | 109 | – | 27 | 105 | 1.41
